The test system of series [1] is Plasmodium gallinaceum. Put plainly: Antimalarial activity against trophozoite-induced Plasmodium gallinaceum infected in chick assessed as cured at 120 mg/kg, sc single dose. Details: dose 120 mg/kg. It counts as functional, organism-based.
Series [2] relates to Plasmodium berghei. Briefly: Antimalarial activity against trophozoite-induced Plasmodium berghei infected in sc dosed mouse assessed as minimum curative dose. Format: functional.
Series [3] deals with Staphylococcus aureus. Put plainly: Antibacterial activity against Staphylococcus aureus S18713 assessed as growth inhibition. Format: functional.
The next series relates to Pseudomonas aeruginosa. Put plainly: Antibacterial activity against Pseudomonas aeruginosa 28 assessed as growth inhibition. Format: functional.
Series [4] has as its system Plasmodium berghei. Put plainly: Antimalarial activity against trophozoite-induced Plasmodium berghei infected in mouse assessed as change in mean survival time at 10 mg/kg, sc single dose after 72 hrs of infection. It counts as functional. The note with it: route subcutaneous.
Series [5] relates to Plasmodium berghei. Put plainly: Antimalarial activity against trophozoite-induced Plasmodium berghei infected in mouse assessed as change in mean survival time at 40 mg/kg, sc single dose after 72 hrs of infection. The conditions noted are these: route subcutaneous. Format: functional.
The subject of the next series is Shigella sonnei. Briefly: Antibacterial activity against Shigella sonnei C-10 assessed as growth inhibition. It counts as functional.
A further series relates to Escherichia coli. Briefly: Antibacterial activity against Escherichia coli Vogel assessed as growth inhibition. Format: functional.
Series [6] deals with Mycobacterium tuberculosis. Put plainly: Antibacterial activity against Mycobacterium tuberculosis H37Rv assessed as growth inhibition. It counts as functional.
The subject of another series is Gallus gallus. Briefly: Toxicity in trophozoite-induced Plasmodium gallinaceum infected in chick assessed as death at 120 mg/kg, sc single dose measured within 48 hrs. The conditions noted are these: chicken, in vivo. It counts as organism-based. Details: dose 120 mg/kg, route subcutaneous.
The test system of series [7] is Plasmodium berghei. Put plainly: Antimalarial activity against trophozoite-induced Plasmodium berghei infected in mouse assessed as change in mean survival time at 20 mg/kg, sc single dose after 72 hrs of infection. It counts as functional. The note with it: route subcutaneous.
For series [8], the system named is Plasmodium gallinaceum. Briefly: Antimalarial activity against trophozoite-induced Plasmodium gallinaceum infected in chick assessed as mean survival time at 120 mg/kg, sc single dose (reference value: 4 days). Format: functional. The conditions noted are these: route subcutaneous.
Series [9] has as its system Staphylococcus aureus. Put plainly: Antibacterial activity against Staphylococcus aureus UC-76 assessed as growth inhibition. It counts as functional.
For series [10], the system named is Plasmodium berghei. Briefly: Antimalarial activity against trophozoite-induced Plasmodium berghei infected in mouse assessed as change in mean survival time at 160 mg/kg, sc single dose after 72 hrs of infection. It counts as functional. The note with it: route subcutaneous.
In series [11] the test system is Plasmodium berghei. Put plainly: Antimalarial activity against trophozoite-induced Plasmodium berghei infected in mouse assessed as change in mean survival time at 80 mg/kg, sc single dose after 72 hrs of infection. It counts as functional. The conditions noted are these: route subcutaneous.
Another series relates to Enterococcus faecalis. Put plainly: Antibacterial activity against Streptococcus faecalis MGH-2 assessed as growth inhibition. Format: functional.
Series [12] deals with Plasmodium gallinaceum. Briefly: Antimalarial activity against sporozoite-induced Plasmodium gallinaceum infected in chick assessed as change in cured at 60 mg/kg, sc single dose. It counts as functional. The note with it: route subcutaneous.
For series [13], the system named is Plasmodium berghei. Put plainly: Antimalarial activity against trophozoite-induced Plasmodium berghei infected in mouse assessed as change in mean survival time at 640 mg/kg, sc single dose after 72 hrs of infection. It counts as functional. The note with it: route subcutaneous.
The subject of series [14] is Plasmodium gallinaceum. Briefly: Antimalarial activity against sporozoite-induced Plasmodium gallinaceum infected in chick assessed as change in cured at 15 mg/kg, sc single dose. It counts as functional. The conditions noted are these: route subcutaneous.
The test system of series [15] is Plasmodium berghei. Put plainly: Antimalarial activity against trophozoite-induced Plasmodium berghei infected in mouse assessed as change in mean survival time at 320 mg/kg, sc single dose after 72 hrs of infection. Format: functional. The note with it: route subcutaneous.
In series [16] the test system is Plasmodium gallinaceum. Put plainly: Antimalarial activity against sporozoite-induced Plasmodium gallinaceum infected in chick assessed as change in cured at 30 mg/kg, sc single dose. The note with it: route subcutaneous. Format: functional.
For series [17], the system named is Plasmodium berghei. Put plainly: Antimalarial activity against trophozoite-induced Plasmodium berghei infected in mouse assessed as change in mean survival time at 5 mg/kg, sc single dose after 72 hrs of infection. The conditions noted are these: route subcutaneous. It counts as functional.
In series [18] the test system is Plasmodium gallinaceum. Put plainly: Antimalarial activity against sporozoite-induced Plasmodium gallinaceum infected in chick assessed as change in cured at 120 mg/kg, sc single dose. The conditions noted are these: route subcutaneous. It counts as functional.
Series [19] deals with Plasmodium berghei. Put plainly: Antimalarial activity against trophozoite-induced Plasmodium berghei infected in mouse assessed as change in mean survival time at 1.25 mg/kg, sc single dose after 72 hrs of infection. It counts as functional. The conditions noted are these: route subcutaneous.
For series [20], the system named is Plasmodium berghei. Briefly: Antimalarial activity against trophozoite-induced Plasmodium berghei infected in mouse assessed as change in mean survival time at 2.5 mg/kg, sc single dose after 72 hrs of infection. It counts as functional. The note with it: route subcutaneous.

As usually defined, the MIC is the lowest concentration that inhibits growth of the organism.

Converted amounts (≈) assume the structure as drawn. The source made the active and inactive calls. No cut-off for these calls is given here.

As for `Nc1nc(N)c2cc([S+]([O-])c3c(F)c(F)cc(F)c3F)ccc2n1` (stereo not drawn), in the series on Plasmodium gallinaceum [1], the outcome was Active. The MCD with Plasmodium berghei [2] came to 80 mg/kg. In addition, the MIC in the series on Staphylococcus aureus [3] is 1.5 µg/mL (≈ 4.21 µM); in the series on Pseudomonas aeruginosa it was greater than 25 µg/mL; in the series with Shigella sonnei it was greater than 25 µg/mL; with Escherichia coli, greater than 25 µg/mL; in series [6], 25 µg/mL (≈ 70.2 µM); in the series with Staphylococcus aureus [9] it was 1 µg/mL (≈ 2.81 µM). In the series with Enterococcus faecalis, the MIC was less than 0.25 µg/mL. The MST worked out at 0.5 days in the series on Plasmodium berghei [4]; 10.7 days in the series with Plasmodium berghei [5]; 0.9 days in the series with Plasmodium berghei [7]; 14.8 days with Plasmodium gallinaceum [8]; 16.7 days with Plasmodium berghei [10]; 13.9 days in the series on Plasmodium berghei [11]. The Activity entry in the series on Gallus gallus is reported as “Toxic”.

As to `Nc1nc(N)c2cc([S+]([O-])c3ccccc3-c3ccccc3)ccc2n1` (stereo not drawn), in the series on Plasmodium berghei [2], the MCD is 640 mg/kg. For the same compound, the MIC was 5 µg/mL (≈ 13.9 µM) with Staphylococcus aureus [3]; greater than 25 µg/mL with Pseudomonas aeruginosa; greater than 25 µg/mL in the series with Shigella sonnei; greater than 25 µg/mL with Escherichia coli; 25 µg/mL (≈ 69.4 µM) in series [6]; 2.5 µg/mL (≈ 6.94 µM) with Staphylococcus aureus [9]. In the series with Enterococcus faecalis, the MIC is less than 0.25 µg/mL. For the same compound, the MST in the series on Plasmodium gallinaceum [12] amounted to 3.7 days; with Plasmodium berghei [4], 0.3 days; in the series with Plasmodium berghei [13], 12.7 days; with Plasmodium berghei [5], 0.3 days; in the series with Plasmodium berghei [7] it was 0.3 days; in the series on Plasmodium gallinaceum [14], 0 days. For the same compound, the MST came to 3.3 days in the series with Plasmodium berghei [10], 0.5 days with Plasmodium berghei [11], 5.7 days in the series with Plasmodium berghei [15] and 0 days in the series on Plasmodium gallinaceum [16].

As for `COc1cccc(S(=O)(=O)c2ccc3nc(N)nc(N)c3c2)c1`, the outcome in the series with Plasmodium gallinaceum [1] was Active. For the same compound, in the series with Plasmodium berghei [2], the MCD was 320 mg/kg. In addition, the MIC with Staphylococcus aureus [3] was 2 µg/mL (≈ 6.05 µM); with Pseudomonas aeruginosa, greater than 25 µg/mL; in the series on Shigella sonnei it was greater than 25 µg/mL; in the series with Escherichia coli, 2.5 µg/mL (≈ 7.57 µM); in series [6], 25 µg/mL (≈ 75.7 µM); with Staphylococcus aureus [9] it was 1 µg/mL (≈ 3.03 µM). In addition, the MIC with Enterococcus faecalis was less than 0.25 µg/mL. In addition, the MST with Plasmodium gallinaceum [12] turned out to be 0 days; in the series on Plasmodium berghei [4], 1.1 days; with Plasmodium berghei [5], 8.9 days; with Plasmodium berghei [7] it was 3.9 days; with Plasmodium gallinaceum [8] it was 13.2 days; with Plasmodium gallinaceum [14], 0 days. For the same compound, the MST with Plasmodium berghei [10] is 13.2 days; in the series on Plasmodium berghei [11], 12.5 days; in the series with Plasmodium berghei [15] it was 23.9 days; with Plasmodium gallinaceum [16], 0 days. Moreover, in the series with Gallus gallus, the Activity result is recorded as “Toxic”.

Take `Nc1nc(N)c2cc(S(=O)(=O)c3ccc(Cl)c(Cl)c3)ccc2n1`: the MCD in the series with Plasmodium berghei [2] amounted to 10 mg/kg. Further, the MIC in the series with Staphylococcus aureus [3] is 1 µg/mL (≈ 2.71 µM); in the series on Pseudomonas aeruginosa, greater than 25 µg/mL; with Shigella sonnei, 20 µg/mL (≈ 54.2 µM); in the series with Escherichia coli, 2.5 µg/mL (≈ 6.77 µM); in [6], 20 µg/mL (≈ 54.2 µM); in the series on Staphylococcus aureus [9] it was 0.5 µg/mL (≈ 1.35 µM). For the same compound, the MIC in the series with Enterococcus faecalis is less than 0.25 µg/mL. Also, the MST in the series with Plasmodium berghei [17] worked out at 5.9 days; with Plasmodium berghei [4], 10.3 days; in the series on Plasmodium gallinaceum [18], 0 days; in the series on Plasmodium berghei [19], 1.1 days; in the series with Plasmodium berghei [20], 3.5 days; in the series with Plasmodium berghei [7] it was 11.2 days.

For the origin of these results see ChEMBL document CHEMBL3244272, “Folate antagonists. 15. 2,3-Diamino-6-(2-naphthylsulfonyl)quinazoline and related 2,4-diamino-6-[(phenyl and naphthyl)sulfinyl and sulfonyl]quinazolines, a potent new class of antimetabolites with phenomenal antimalarial activity” (J Med Chem, 1979).
